US8685924B2, “Preventives/remedies for stress urinary incontinence and method of screening the same” (Takeda Pharmaceutical Company Limited, priority 2004, dated 2014)
Values joined by “and” are separate entries in the source; they are usually repeats but may differ in a detail not shown here. Equal values may be shown once.

Legend:
[1] = tested on: urethane-anesthetized female rats; assay: Leak point pressure by abdominal wall-electrically stimulating method, serotonin 5-HT receptor agonists (Example 3); assay type: in vivo, rat; conditions: for leak point pressure after drug administration / leak point pressure increase / leak point pressure before drug administration: i.v., mean ± SEM; for leak point pressure before drug administration: baseline; for effect on leak point pressure: intravenous administration
Protocol: SD female rats (body weight 180-350 g) were anesthetized with urethane (Wako Pure Chemical Industries, Ltd.), and the spinal cord was transected at T8-9 level to eliminate the reflex voiding. In addition, the nerve to the iliococcygeus muscle/pubococcygeus muscle on the one side was transected. During operation, halothane (Takeda Pharmaceutical Company Limited) anesthesia was added when necessary. A catheter (PE-90, Clay Adams) was inserted into the bladder and secured with a ligature, and the incised part of each of the abdominal muscle and skin was closed with sutures. The abdominal skin near the diaphragm was incised at two left and right positions to newly expose the abdominal muscle. An Evans Blue dye (Merck) solution was injected into the bladder, and the bladder volume was adjusted to 0.2-0.3 ml. The bladder catheter was connected to a pressure transducer, and the signals of the transducer were sent to a computer via an amplifier (blood pressure amplification unit AP-641G; NIHON KOHDEN) and an analog-to-digital converter (BIOPAC; MP100), and recorded on a hard disc. The data were analyzed on a computer using software (BIOPAC; AcqKnowledge). The exposed abdominal muscle was electrostimulated using an electrostimulator (SEN-3301; NIHON KODEN) and an isolator (SS-202J; NIHON KODEN), and the presence or absence of incontinence from the meatus urethra was observed. The electrostimulation was applied at a voltage of 2.5-50 V, duration of 0.5 milisec, and frequency 50 Hz for 1 sec, thereby gradually increasing the intravesical pressure. The peak intravesical pressure during stimulation of the abdominal wall was measured and, of the trials with observed incontinence, the lowest peak intravesical pressure was defined as the leak point pressure. Serotonin 5-HT receptor agonist, WAY-161503 (5-HT2C receptor agonist), WAY-163909 (5-HT2C receptor agonist), DOI (5-HT2A/2B/2C receptor agonist), mCPP (5-HT2B/2C receptor partial agonist), eltoprazine (5-HT1A/1B/2C receptor partial agonist), 8-OH-DPAT (5-HT1A receptor agonist), sumatryptan (5-HT1B/1D receptor agonist) and BW723C86 (5-HT2B receptor agonist) were intravenously administered, and the leak point pressure was compared before and after the administration. DOI, mCPP and eltoprazine were dissolved in saline, and other drugs were dissolved in DMA/PEG400 (1:1), and they were intravenously administered at 1 ml/kg and 0.5 mg/kg, respectively. Depending on the experiment, RS-102221 (serotonin 5-HT2C receptor antagonist) or SB221284 (serotonin 5-HT2B/2C receptor antagonist) was intravenously administered 5 min before WAY-161503 or WAY-163909 administration, and an antagonistic effect against the WAY-161503 or WAY-163909-induced increment of the leak point pressure was examined. RS-102221 and SB221284 were both dissolved in DMA/PEG400 (1:1) and intravenously administered at 0.5 ml/kg.

[2] = tested on: urethane-anesthetized female rats; assay: Leak point pressure by direct compressing of the bladder (Example 4); assay type: in vivo, rat; conditions: for leak point pressure after drug administration / leak point pressure increase / leak point pressure before drug administration: i.v., mean ± SEM; for leak point pressure after drug administration: 20 min later; for leak point pressure before drug administration: baseline; for effect on leak point pressure: intravenous administration
Protocol: SD female rats (body weight 180-350 g) were anesthetized with urethane (Wako Pure Chemical Industries, Ltd.), and halothane (Takeda Pharmaceutical Company Limited) anesthesia was added when necessary during operation.
The spinal cord was transected at T8-9 level to eliminate the reflex voiding. The lower abdomen was incised in the median line, a catheter for intravesical pressure measurement (PE-90, Clay Adams) was inserted into the bladder and secured with a ligature, and the intravesical pressure was measured via a pressure transducer. Urine was emptized in advance by bilaterally pressing the bladder with two swabs, and a 0.1% Evans blue (Merck) solution (0.4 mL) was injected into the bladder. The bladder was gradually compressed bilaterally with two swabs, and the intravesical pressure upon saline leakage from the urethral orifice was measured and defined as a leak point pressure. The measurement of the leak point pressure was repeated, and the average value of the final five stable measures was taken as the value before drug administration. Thereafter, the drug was intravenously administered, the leak point pressure was measured again 20 min later, and the value after the drug administration was determined. DOI, mCPP and eltoprazine were dissolved in saline, and other drugs were dissolved in DMA/PEG400 (1:1), and intravenously administered at 1 ml/kg and 0.5 mg/kg, respectively. Depending on the experiment, RS-102221 or SB221284 (showing serotonin 5-HT2C receptor antagonist activity) was administered, 5 min later, WAY-161503 or WAY-163909 was administered, leak point pressure was measured 10 min later, and a competitive assay with the action of WAY-161503 or WAY-163909 was performed. RS-102221 and SB221284 were both dissolved in DMA/PEG400 (1:1), and intravenously administered at 0.5 ml/kg.

CC(N)Cc1c[nH]c2ccc(OCc3cccs3)cc12 (stereo not shown) [BW723C86]
leak point pressure after drug administration ([1]; 3 mg/kg): 48.9 ± 4.6 cmH2O
leak point pressure increase ([1]; 3 mg/kg): 2.5 ± 3.5 cmH2O
leak point pressure after drug administration ([1]; 10 mg/kg): 48.6 ± 3.2 cmH2O
leak point pressure increase ([1]; 10 mg/kg): −0.7 ± 3.9 cmH2O
leak point pressure before drug administration ([1]; dose group 3 mg/kg): 46.4 ± 5.6 cmH2O
leak point pressure before drug administration ([1]; dose group 10 mg/kg): 49.3 ± 6.5 cmH2O
effect on leak point pressure [1]: showed no effect

c1cc2c3c(c1)[C@@H]1CCC[C@@H]1N3CCNC2 [WAY-163907]
leak point pressure after drug administration ([2]; 3 mg/kg): 57.0 ± 5.1 cmH2O
leak point pressure increase ([2]; 3 mg/kg): 1.9 ± 0.5 cmH2O
leak point pressure before drug administration ([2]; dose group 3 mg/kg): 55.1 ± 4.7 cmH2O
effect on leak point pressure [2]: showed no effect
leak point pressure after drug administration ([1]; 3 mg/kg): 47.4 ± 4.8 cmH2O
leak point pressure increase ([1]; 3 mg/kg): −4.8 ± 2.6 cmH2O
leak point pressure before drug administration ([1]; dose group 3 mg/kg): 52.2 ± 3.4 cmH2O
effect on leak point pressure [1]: showed no effect

CCCN(CCC)C1CCc2cccc(O)c2C1 (stereo not shown) [8OH-DPAT]
leak point pressure after drug administration ([1]; 0.3 mg/kg): 47.1 ± 9.4 cmH2O
leak point pressure increase ([1]; 0.3 mg/kg): −1.5 ± 1.2 cmH2O
leak point pressure before drug administration ([1]; dose group 0.3 mg/kg): 48.5 ± 9.6 cmH2O
effect on leak point pressure [1]: showed no effect

COc1cc(CC(C)N)c(OC)cc1I (stereo not shown) [DOI]
leak point pressure after drug administration ([2]; 0.01 mg/kg): 68.5 ± 5.7 cmH2O
leak point pressure increase ([2]; 0.01 mg/kg): 2.9 ± 2.0 cmH2O
leak point pressure after drug administration ([2]; 0.03 mg/kg): 71.1 ± 6.7 cmH2O
leak point pressure increase ([2]; 0.03 mg/kg): 6.2 ± 2.9 cmH2O
leak point pressure after drug administration ([2]; 0.1 mg/kg): 79.5 ± 2.6 cmH2O
leak point pressure increase ([2]; 0.1 mg/kg): 14.3 ± 2.8 cmH2O
leak point pressure after drug administration ([2]; 0.3 mg/kg): 85.7 ± 6.0 cmH2O
leak point pressure increase ([2]; 0.3 mg/kg): 18.7 ± 2.9 cmH2O
leak point pressure after drug administration ([2]; 1 mg/kg): 82.9 ± 3.6 cmH2O
leak point pressure increase ([2]; 1 mg/kg): 22.6 ± 2.5 cmH2O
leak point pressure before drug administration ([2]; dose group 0.01 mg/kg): 65.7 ± 6.3 cmH2O
leak point pressure before drug administration ([2]; dose group 0.03 mg/kg): 64.9 ± 5.4 cmH2O
leak point pressure before drug administration ([2]; dose group 0.1 mg/kg): 65.2 ± 3.6 cmH2O
leak point pressure before drug administration ([2]; dose group 0.3 mg/kg): 67.0 ± 4.3 cmH2O
leak point pressure before drug administration ([2]; dose group 1 mg/kg): 60.3 ± 3.5 cmH2O
effect on leak point pressure [2]: increased the leak point pressure significantly
leak point pressure after drug administration ([1]; 0.01 mg/kg): 39.7 ± 5.2 cmH2O
leak point pressure increase ([1]; 0.01 mg/kg): 3.2 ± 3.3 cmH2O
leak point pressure after drug administration ([1]; 0.03 mg/kg): 50.1 ± 7.1 cmH2O
leak point pressure increase ([1]; 0.03 mg/kg): 5.9 ± 1.9 cmH2O
leak point pressure after drug administration ([1]; 0.1 mg/kg): 63.2 ± 5.7 cmH2O
leak point pressure increase ([1]; 0.1 mg/kg): 18.7 ± 2.9 cmH2O
leak point pressure after drug administration ([1]; 0.3 mg/kg): 67.9 ± 11.5 cmH2O
leak point pressure increase ([1]; 0.3 mg/kg): 27.2 ± 3.9 cmH2O
leak point pressure before drug administration ([1]; dose group 0.01 mg/kg): 36.4 ± 7.6 cmH2O
leak point pressure before drug administration ([1]; dose group 0.03 mg/kg): 44.2 ± 7.2 cmH2O
leak point pressure before drug administration ([1]; dose group 0.1 mg/kg): 44.5 ± 5.8 cmH2O
leak point pressure before drug administration ([1]; dose group 0.3 mg/kg): 40.7 ± 8.7 cmH2O
effect on leak point pressure [1]: increased the leak point pressure significantly

Clc1cccc(N2CCNCC2)c1 [mCPP]
leak point pressure after drug administration ([2]; 0.003 mg/kg): 67.0 ± 5.3 cmH2O
leak point pressure increase ([2]; 0.003 mg/kg): 4.1 ± 2.1 cmH2O
leak point pressure after drug administration ([2]; 0.01 mg/kg): 69.3 ± 3.4 cmH2O
leak point pressure increase ([2]; 0.01 mg/kg): 6.3 ± 2.3 cmH2O
leak point pressure after drug administration ([2]; 0.03 mg/kg): 73.8 ± 7.1 cmH2O
leak point pressure increase ([2]; 0.03 mg/kg): 11.6 ± 3.1 cmH2O
leak point pressure after drug administration ([2]; 0.1 mg/kg): 76.7 ± 4.0 cmH2O
leak point pressure increase ([2]; 0.1 mg/kg): 13.6 ± 2.5 cmH2O
leak point pressure after drug administration ([2]; 0.3 mg/kg): 71.1 ± 7.1 cmH2O
leak point pressure increase ([2]; 0.3 mg/kg): 5.4 ± 2.2 cmH2O
leak point pressure before drug administration ([2]; dose group 0.003 mg/kg): 62.9 ± 5.0 cmH2O
leak point pressure before drug administration ([2]; dose group 0.01 mg/kg): 63.0 ± 2.7 cmH2O
leak point pressure before drug administration ([2]; dose group 0.03 mg/kg): 62.2 ± 4.4 cmH2O
leak point pressure before drug administration ([2]; dose group 0.1 mg/kg): 63.1 ± 3.9 cmH2O
leak point pressure before drug administration ([2]; dose group 0.3 mg/kg): 65.7 ± 7.8 cmH2O
effect on leak point pressure [2]: increased the leak point pressure significantly
leak point pressure after drug administration ([1]; 0.01 mg/kg): 49.1 ± 6.4 cmH2O
leak point pressure increase ([1]; 0.01 mg/kg): 2.8 ± 2.1 cmH2O
leak point pressure after drug administration ([1]; 0.03 mg/kg): 52.3 ± 4.3 cmH2O
leak point pressure increase ([1]; 0.03 mg/kg): 14.6 ± 2.7 cmH2O
leak point pressure after drug administration ([1]; 0.1 mg/kg): 59.7 ± 6.6 cmH2O
leak point pressure increase ([1]; 0.1 mg/kg): 13.2 ± 2.8 cmH2O
leak point pressure before drug administration ([1]; dose group 0.01 mg/kg): 46.3 ± 5.8 cmH2O
leak point pressure before drug administration ([1]; dose group 0.03 mg/kg): 37.7 ± 4.0 cmH2O
leak point pressure before drug administration ([1]; dose group 0.1 mg/kg): 46.5 ± 6.1 cmH2O
effect on leak point pressure [1]: increased the leak point pressure significantly

c1cc2c(c(N3CCNCC3)c1)OCCO2 [eltoprazine]
leak point pressure after drug administration ([2]; 1 mg/kg): 76.7 ± 4.7 cmH2O
leak point pressure increase ([2]; 1 mg/kg): 8.0 ± 2.8 cmH2O
leak point pressure after drug administration ([2]; 3 mg/kg): 74.6 ± 2.3 cmH2O
leak point pressure increase ([2]; 3 mg/kg): 13.5 ± 1.0 cmH2O
leak point pressure before drug administration ([2]; dose group 1 mg/kg): 68.6 ± 6.1 cmH2O
leak point pressure before drug administration ([2]; dose group 3 mg/kg): 61.1 ± 2.4 cmH2O
effect on leak point pressure [2]: increased the leak point pressure significantly
leak point pressure after drug administration ([1]; 1 mg/kg): 55.2 ± 4.5 cmH2O
leak point pressure increase ([1]; 1 mg/kg): 6.1 ± 1.7 cmH2O
leak point pressure after drug administration ([1]; 3 mg/kg): 63.2 ± 5.6 cmH2O
leak point pressure increase ([1]; 3 mg/kg): 15.8 ± 3.1 cmH2O
leak point pressure before drug administration ([1]; dose group 1 mg/kg): 49.2 ± 5.2 cmH2O
leak point pressure before drug administration ([1]; dose group 3 mg/kg): 47.4 ± 5.5 cmH2O
effect on leak point pressure [1]: increased the leak point pressure significantly

CNS(=O)(=O)Cc1ccc2[nH]cc(CCN(C)C)c2c1 [sumatryptan]
leak point pressure after drug administration ([1]; 1 mg/kg): 42.2 ± 2.0 cmH2O and 44.9 ± 9.1 cmH2O
leak point pressure after drug administration ([1]; 3 mg/kg): 54.4 ± 7.5 cmH2O
leak point pressure increase ([1]; 3 mg/kg): 1.5 ± 2.6 cmH2O
leak point pressure before drug administration ([1]; dose group 1 mg/kg): 44.2 ± 2.6 cmH2O and 43.2 ± 8.3 cmH2O
leak point pressure before drug administration ([1]; dose group 3 mg/kg): 52.9 ± 7.8 cmH2O
effect on leak point pressure [1]: showed no effect
